# Values of other authors in patent US20110250279A1, “CONTROLLED-RELEASE COMPOSITION FOR PRODUCING SUSTAINED-RELEASE PREPARATION CONTAINING UDENAFIL” (Dong-A Pharm. Co., Ltd., priority 2008, published 2011).
# Experiments:
# PDE-5 = PDE-5 (Homo sapiens, UniProt O76074)
# [1] = phase 1 clinical tests (Koreans and Caucasians)
# [2] = not given; remark: listed apart in the source
structure (smiles),measurement,setting,value
"CCCOc1ccc(S(=O)(=O)NCCC2CCCN2C)cc1-c1nc2c(CCC)nn(C)c2c(=O)[nH]1 (stereo not drawn) [Udenafil, 3-(1-methyl-7-oxo-3-propyl-4,7-dihydro-1H-pyrazolo[4,3-d]pyrimidin-5-yl)-N-[2-(1-methylpyrrolidin-2-yl)ethyl]-4-propoxybenzenesulfonamide]",inhibitory activity for PDE-5,PDE-5,strong inhibitory activity
same,selectivity for PDE-5,PDE-5,high selectivity
same,volume of distribution in vivo,,large volume of distribution
same,absorption,in vivo,rapidly absorbed
same,bioavailability,in vivo,high bioavailability
same,half life relative to sildenafil or vardenafil,in vivo,about three times longer
same,serious abnormal reactions by drugs,[1],did not generate serious abnormal reactions
same,drug discontinuation rate,[2]; during the clinical tests,lowest
same,extent and frequency of side effects,"[2]; phase 2 and 3 clinical tests, versus conventional oral therapeutic agents for erectile dysfunction",lower
